Data reported in BigSolDB 2.1.

O=C(Nc1ccccc1)Nc1ccnc(Cl)c1
solubility (mole fraction)
Conditions	278.15 K	283.15 K	288.15 K	293.15 K	298.15 K	303.15 K	308.15 K	313.15 K	318.15 K	323.15 K
in acetone	0.03	0.0317	0.0346	0.0384	0.042	0.0456	0.0488	0.0544	0.0606	0.0672
in ethanol	0.0171	0.0193	0.0218	0.0248	0.0282	0.0325	0.0373	0.043	0.0495	0.0563
in methanol	0.0119	0.0135	0.0155	0.0183	0.0219	0.0257	0.0305	0.0366	0.0447	0.0541
in n-propanol	0.0171	0.0198	0.0221	0.0257	0.0295	0.034	0.0385	0.0453	0.0515	0.0582
